Assay results as given in PMC12612594, “Nuclear Magnetic Resonance‐based fragment screen of the E3 ligase Fem‐1 homolog B” (Protein Science : A Publication of the Protein Society, 2025).

Assays:
[1] = target: FEM1B‐12 (Homo sapiens, UniProt Q9UK73); experiment: NMR titration (1H-13C-methyl SOFAST HMQC) of fragments; assay type: binding; conditions: for Kd: fragment 0.0625–2 mM, 100 μM 13C-methyl labeled FEM1B‐12, 310 K, Hill's equation model, read-out: Kd (dissociation constant by NMR titration); for higher affinity than the reference molecule VU0417412: ratio of KD values vs VU0417412
FEM1B‐12, sequence (Q9UK73 1-356): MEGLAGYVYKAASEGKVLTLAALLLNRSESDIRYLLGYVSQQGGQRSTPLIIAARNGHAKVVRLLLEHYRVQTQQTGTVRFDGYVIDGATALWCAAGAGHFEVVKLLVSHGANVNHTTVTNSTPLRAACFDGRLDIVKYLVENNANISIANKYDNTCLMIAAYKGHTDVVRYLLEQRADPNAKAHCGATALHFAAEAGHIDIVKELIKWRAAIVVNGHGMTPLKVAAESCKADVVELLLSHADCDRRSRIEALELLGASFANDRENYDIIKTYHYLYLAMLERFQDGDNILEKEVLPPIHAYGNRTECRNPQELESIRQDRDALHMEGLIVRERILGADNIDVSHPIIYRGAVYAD
Protocol: Using ^1H‐^13C‐methyl SOFAST HMQC NMR, 4608 structurally diverse fragments were prepared as 12‐fragment mixtures at the concentration of 800 μM per compound and screened against 100 μM FEM1B‐12. The spectra of FEM1B in the presence of the fragment mixtures were compared to the spectrum of ligand‐free FEM1B to identify fragment hits. Twelve‐fragment mixture hits were subsequently deconvoluted by testing individual fragments for binding. In total, 18 fragment hits were identified ([…]) in the screen. Three chemical shift patterns were observed among the 18 fragment hits (Figure 2), with pattern three having two sub‐patterns with the same residues shifting in different directions. […] The dissociation constants of the fragments were determined by NMR titration using fragment concentrations ranging from 0.0625 to 2 mM (Figure 2) (Henning et al., [2022]).
All ^15N‐TROSY NMR experiments were carried out at 310 K using a 900 MHz Bruker Avance III spectrometer equipped with a TXI/TCI CryoProbe and a Bruker SampleJet. All 1H‐13C‐SOFAST HMQC NMR experiments were carried out at 310 K using a 600 MHz Bruker AV‐III‐600 Spectrometer with a TCI CryoProbe and a Bruker SampleJet. Two‐dimensional ^1H‐^15 TROSY spectra of 150 μM FEM1B‐12 and ^1H‐^13C‐SOFAST HMQC spectra of 100 μM FEM1B‐12 were recorded using 30‐min acquisition times and analyzed using Topspin 4.1.4 (Bruker).
HMQC titration experiments were used to determine binding affinity of the fragment hits identified from the screen. The changes in ^1H‐^13C chemical shifts of selectively labeled sidechain resonances upon the addition of increasing concentrations of the fragments (0.0625–2 mM) were analyzed. The binding affinities (KDs) of the fragments were calculated using the Hill's equation model in Prism 10 (GraphPad).

[2] = tested on: FEM1B; experiment: LC-coupled tandem mass spectrometry, site of covalent attachment; assay type: binding; conditions: FEM1B incubated with five times the concentration of compound for 48 h, trypsin digest, LC-MS/MS
Protocol: To assess the potential for covalent binding of VU0416476 to FEM1B, we used LC‐coupled tandem mass spectrometry to identify the site of covalent attachment. After FEM1B was incubated with five times the concentration of VU0416476 for 48 h, the protein was digested with sequencing‐grade trypsin, and peptides were analyzed by LC‐MS/MS.
FEM1B incubated with five times the concentration of VU0416476 were brought to a final concentration of 5% SDS, reduced with 20 mM DTT at 55°C for 20 min, and alkylated with 40 mM iodoacetamide for 30 min in the dark at room temperature. The samples were then prepared for digestion on S‐Trap™ micro spin columns (ProtiFi) following the manufacturer's instructions. Aqueous phosphoric acid was added to a final concentration of 2.5%, followed by the addition of 90% methanol containing 100 mM TEAB (S‐Trap binding/wash buffer) at 6× the volume. Samples were loaded onto S‐Trap columns and centrifuged at 4000g. Columns were washed four times with binding/wash buffer. […] Eluted peptides were dried in a speed‐vac concentrator, reconstituted in aqueous 0.2% formic acid, and analyzed by LC‐coupled tandem mass spectrometry (LC–MS/MS) using similar methods to those described in the work of Howard et al. ([2024]). […] Peptides were eluted at a flow rate of 350 nL/min, using a 90‐min gradient, and were analyzed on an Orbitrap Exploris 480 mass spectrometer (Thermo Scientific). […]

[3] = tested on: FEM1B; parameters: method as in Henning et al., [2022]; conditions: ref Henning et al., [2022]; cited from earlier work
[4] = tested on: recombinant mouse FEM1B; parameters: method as in Henning et al., [2022]; conditions: TAMARA‐FNIP1 degron, ref Henning et al., [2022], read-out: 50% inhibitory concentration (IC50); cited from earlier work

**Q.** Which Kd [1] does the source give for O=C(Nc1ccc(F)cc1)c1cccs1 [VU0417412] here?
**A.** 280 µM

**Q.** Which Kd [1] does the source give for O=C(O)c1cccc(N2CCCC2=O)c1 [VU0081201] here?
**A.** 1130 µM

**Q.** Which results are given for COCc1ccc(NC(=O)c2cccs2)cc1 [VU0175318]?
**A.** Kd [1]: 100 µM; higher affinity than the reference molecule VU0417412 [1]: 2.8 ×

**Q.** For CC(C)(C)N1C(=O)c2ccc(C(=O)O)cc2C1=O [VU0023775], which Kd [1] is on record?
**A.** 960 µM

**Q.** With CC(C)(C)n1ncc(Cl)c(Cl)c1=O [VU0416476] as the compound, how does the “site of covalent attachment” value [2] read?
**A.** covalently binds to Cys186

**Q.** For CC(C)c1ccc(NC(=O)c2cnccn2)cc1 [VU0412674], which Kd [1] is on record?
**A.** 260 µM

**Q.** For N#CCCN(C(=O)CCl)c1ccc2c(c1)OCCO2 [EN106], which “site of covalent binding” value [3] is on record?
**A.** covalently bind to Cys186

**Q.** And the IC50 [4]?
**A.** 2.2 µM

**Q.** Which results are given for CC(=O)c1cccc(NC(=O)c2cccs2)c1 [VU0013947]?
**A.** Kd [1]: 80 µM; higher affinity than the reference molecule VU0417412 [1]: 3.5 ×
